Measurements from ChEMBL document CHEMBL5046316, “Structure-Based Optimization of a Fragment-like TLR8 Binding Screening Hit to an In Vivo Efficacious TLR7/8 Antagonist” (ACS Med Chem Lett, 2022).

Key:
[1] = Drug exposure in 129Sv mouse blood at 3 mg/kg, po by LC-MS/MS analysis; format: ADME, organism-based; details: in vivo, read-out: Drug uptake
[2] = target: T1, Toll-like receptor 7 (Mus musculus, UniProt P58681); assay: Antagonist activity at mouse TLR7 expressed in human whole blood assessed as inhibition of ssRNA stimulated IFNalpha level preincubated for 30 mins followed by stimulation and measured after 20 hrs by AlphaLISA method; format: tissue-based
T1 sequence (P58681 whole entry): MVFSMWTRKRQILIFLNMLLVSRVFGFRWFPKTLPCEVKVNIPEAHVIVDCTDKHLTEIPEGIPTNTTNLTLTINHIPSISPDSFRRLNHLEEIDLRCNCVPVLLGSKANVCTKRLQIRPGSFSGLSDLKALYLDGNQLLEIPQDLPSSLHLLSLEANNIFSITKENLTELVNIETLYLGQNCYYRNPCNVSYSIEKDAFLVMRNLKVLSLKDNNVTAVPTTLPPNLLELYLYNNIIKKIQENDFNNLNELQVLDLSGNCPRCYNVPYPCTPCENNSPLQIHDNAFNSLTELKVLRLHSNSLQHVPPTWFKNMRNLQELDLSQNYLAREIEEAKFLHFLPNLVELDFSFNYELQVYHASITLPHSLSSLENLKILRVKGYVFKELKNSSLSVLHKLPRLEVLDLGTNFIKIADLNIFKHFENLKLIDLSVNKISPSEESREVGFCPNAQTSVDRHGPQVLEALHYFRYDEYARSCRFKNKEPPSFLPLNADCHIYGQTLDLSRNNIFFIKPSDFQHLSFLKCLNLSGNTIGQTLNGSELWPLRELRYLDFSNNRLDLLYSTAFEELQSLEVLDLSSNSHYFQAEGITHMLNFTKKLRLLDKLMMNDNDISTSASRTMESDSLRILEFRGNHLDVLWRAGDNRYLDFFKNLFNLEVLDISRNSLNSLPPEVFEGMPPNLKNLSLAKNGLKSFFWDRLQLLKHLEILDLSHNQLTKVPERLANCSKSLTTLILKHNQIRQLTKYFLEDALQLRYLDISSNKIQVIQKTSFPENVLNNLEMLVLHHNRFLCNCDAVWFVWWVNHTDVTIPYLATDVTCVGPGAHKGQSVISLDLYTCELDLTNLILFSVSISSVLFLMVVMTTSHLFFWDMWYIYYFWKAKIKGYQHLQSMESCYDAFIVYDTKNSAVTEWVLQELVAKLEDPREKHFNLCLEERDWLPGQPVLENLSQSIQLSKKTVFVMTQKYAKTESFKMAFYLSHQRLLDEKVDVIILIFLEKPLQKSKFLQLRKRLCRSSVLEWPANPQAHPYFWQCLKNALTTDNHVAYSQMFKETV

[3] = Drug exposure in 129Sv mouse blood at 0.3 mg/kg, po by LC-MS/MS analysis; format: ADME, organism-based; details: in vivo, read-out: Drug uptake
[4] = Drug exposure in 129Sv mouse blood at 0.1 mg/kg, po by LC-MS/MS analysis; format: ADME, organism-based; details: in vivo, read-out: Drug uptake
[5] = target: T2, Toll-like receptor 4 (Homo sapiens, UniProt O00206); assay: Antagonist activity at human TLR4 expressed in human PBMC cells assessed as inhibition of LPS stimulated TNF level preincubated for 30 mins followed by stimulation and measured after 20 hrs by multiplate reader assay; format: cell-based
[6] = target: T1, Toll-like receptor 7; assay: Antagonist activity at mouse TLR7 expressed in human PBMC cells assessed as inhibition of ssRNA stimulated IFNalpha level preincubated for 30 mins followed by stimulation and measured after 20 hrs by AlphaLISA method; format: cell-based
[7] = Octanol/water partition coefficient, logD of compound at pH 7.4 measured after 4 hrs by shake flask method; format: physicochemical
[8] = Clearance in Balb/c mouse at 10 mg/kg, po or 1mg/kg, iv administered as cassette dose measured upto 24 hrs by LC/MS/MS analysis; format: ADME, organism-based; details: in vivo
[9] = Dose normalized Cmax in Balb/c mouse at 10 mg/kg, po and 1 mg/kg, iv administered as cassette dose measured upto 24 hrs by LC/MS/MS analysis; format: ADME, organism-based; details: in vivo
[10] = target: Cytochrome P450 3A4 (Homo sapiens, UniProt P08684); assay: Inhibition of CYP3A4 (unknown origin); format: ADME
[11] = Oral bioavailability in Balb/c mouse at 10 mg/kg administered as cassette dose measured upto 24 hrs by LC/MS/MS analysis; format: ADME, organism-based; details: in vivo
[12] = MRT in Balb/c mouse at 10 mg/kg, po or 1 mg/kg, iv administered as cassette dose measured upto 24 hrs by LC/MS/MS analysis; format: ADME, organism-based; details: in vivo
[13] = target: T2, Toll-like receptor 4; assay: Antagonist activity at human TLR4 expressed in human whole blood assessed as inhibition of LPS stimulated TNF level preincubated for 30 mins followed by stimulation and measured after 20 hrs by multiplate reader assay; format: tissue-based
[14] = Drug exposure in 129Sv mouse blood at 1 mg/kg, po by LC-MS/MS analysis; format: ADME, organism-based; details: in vivo, read-out: Drug uptake

T2 sequence (O00206 whole entry): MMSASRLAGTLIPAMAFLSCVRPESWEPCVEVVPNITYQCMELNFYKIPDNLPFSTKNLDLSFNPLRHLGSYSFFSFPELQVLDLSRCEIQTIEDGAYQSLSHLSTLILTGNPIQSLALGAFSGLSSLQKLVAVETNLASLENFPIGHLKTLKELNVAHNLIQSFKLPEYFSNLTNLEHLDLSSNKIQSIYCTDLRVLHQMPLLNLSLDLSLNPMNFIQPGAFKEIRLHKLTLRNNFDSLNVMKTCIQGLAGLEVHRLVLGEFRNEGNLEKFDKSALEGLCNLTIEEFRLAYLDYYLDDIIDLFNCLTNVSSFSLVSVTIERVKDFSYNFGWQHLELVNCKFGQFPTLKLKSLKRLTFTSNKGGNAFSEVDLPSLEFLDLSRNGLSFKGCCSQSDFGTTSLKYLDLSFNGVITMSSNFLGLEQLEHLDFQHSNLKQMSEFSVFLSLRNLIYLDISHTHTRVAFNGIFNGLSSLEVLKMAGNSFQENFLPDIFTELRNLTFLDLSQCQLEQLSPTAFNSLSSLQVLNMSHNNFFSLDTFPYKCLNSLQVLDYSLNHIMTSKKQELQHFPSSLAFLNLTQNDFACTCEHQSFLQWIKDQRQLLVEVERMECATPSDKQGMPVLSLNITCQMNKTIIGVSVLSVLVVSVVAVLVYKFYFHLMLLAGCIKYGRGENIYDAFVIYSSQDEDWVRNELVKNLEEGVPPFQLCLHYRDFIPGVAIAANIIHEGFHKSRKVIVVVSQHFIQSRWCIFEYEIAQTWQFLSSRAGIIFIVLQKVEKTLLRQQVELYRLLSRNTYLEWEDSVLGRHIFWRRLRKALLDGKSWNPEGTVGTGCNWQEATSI
Sequence of Cytochrome P450 3A4 (P08684 whole entry): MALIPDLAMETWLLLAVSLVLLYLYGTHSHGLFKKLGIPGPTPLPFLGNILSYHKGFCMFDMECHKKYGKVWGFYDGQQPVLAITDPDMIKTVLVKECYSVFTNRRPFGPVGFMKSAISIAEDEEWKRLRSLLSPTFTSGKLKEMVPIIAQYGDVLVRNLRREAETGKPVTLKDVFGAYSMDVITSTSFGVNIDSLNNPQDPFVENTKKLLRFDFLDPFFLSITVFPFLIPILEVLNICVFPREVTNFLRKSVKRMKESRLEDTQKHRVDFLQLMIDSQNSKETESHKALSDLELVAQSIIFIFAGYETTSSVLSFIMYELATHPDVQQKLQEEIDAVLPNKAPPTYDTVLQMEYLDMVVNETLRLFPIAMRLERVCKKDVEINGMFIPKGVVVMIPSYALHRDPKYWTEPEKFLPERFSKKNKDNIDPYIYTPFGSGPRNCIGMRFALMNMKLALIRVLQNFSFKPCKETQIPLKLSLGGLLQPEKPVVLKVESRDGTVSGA

Cc1cc(-c2cc3[nH]nc(N[C@@H]4CCNC[C@H]4F)c3cc2C2CC2)cc(C)n1
concentration [1]: 110 nM
IC50 [2]: 0.002 µM
concentration [3]: 1.3 nM
concentration [4]: 0.4 nM
IC50 [5]: > 8 µM
IC50 [6]: Not Active
logD at 4 h [7]: 2.7
clearance [8]: 55 mL/min/kg
Cmax/dose [9]: 79 nM/mg/kg
IC50 [10]: > 25 µM
bioavailability [11]: 38%
MRT [12]: 2.5 h
IC50 [13]: > 10 µM
concentration [14]: 8 nM
